SMILES	melting point [°C]
CCOc1ccc2c(c1)N=C(c1cccc(-c3cccnc3)c1)CC(=O)N2 [Example 162, 7-Ethoxy-4-(3-pyridin-3-yl-phenyl)-1,3-dihydro-benzo[b][1,4]diazepin-2-one]	166 to 169
Cc1cc2c(cc1Cl)NC(=O)CC(c1cccc(-c3cc(N(C)C)ncn3)c1)=N2 [Example 333, 8-Chloro-4-[3-(6-dimethylamino-pyrimidin-4-yl)-phenyl]-7-methyl-1,3-dihydro-benzo[b][1,4]diazepin-2-one]	226 to 228
Cc1cc(-c2cccc(C3=Nc4cc(Cl)c(Cl)cc4NC(=O)C3)c2)ncn1 [Example 313, 7,8-Dichloro-4-[3-(6-methyl-pyrimidin-4-yl)-phenyl]-1,3-dihydro-benzo[b][1,4]diazepin-2-one]	220 to 222
Cc1cc(-c2cccc(C3=Nc4cc(N(C)C)c(C(F)(F)F)cc4NC(=O)C3)c2)cc(C)n1 [Example 409, 7-Dimethylamino-4-[3-(2,6-dimethyl-pyridin-4-yl)-phenyl]-8-trifluoromethyl-1,3-dihydro-benzo[b][1,4]diazepin-2-one]	256
Cc1cc(-c2cccc(C3=Nc4ccc(-n5cccc5)cc4NC(=O)C3)c2)ncn1 [Example 314, 4-[3-(6-Methyl-pyrimidin-4-yl)-phenyl]-8-pyrrol-1-yl-1,3-dihydro-benzo[b][1,4]diazepin-2-one]	242 to 243
O=C1CC(c2cccc(-c3ccnc(C4CC4)c3)c2)=Nc2ccc(C(F)(F)F)cc2N1 [Example 346, 4-[3-(2-Cyclopropyl-pyridin-4-yl)-phenyl]-8-trifluoromethyl-1,3-dihydro-benzo[b][1,4]diazepin-2-one]	181
CN(C)c1cc2c(cc1C(F)(F)F)NC(=O)CC(c1cccc(-c3cnccn3)c1)=N2 [Example 90, 7-Dimethylamino-4-(3-pyrazin-2-yl-phenyl)-8-trifluoromethyl-1,3-dihydro-benzo[b][1,4]diazepin-2-one]	204
Cc1cc(-c2cccc(C3=Nc4cc(N(C)C)c(C(F)(F)F)cc4NC(=O)C3)c2)ncn1 [Example 310, 7-Dimethylamino-4-[3-(6-methyl-pyrimidin-4-yl)-phenyl]-8-trifluoromethyl-1,3-dihydro-benzo[b][1,4]diazepin-2-one]	232 to 236
Cc1cc(-c2cccc(C3=Nc4ccc(-n5cccc5)cc4NC(=O)C3)c2)ccn1 [Example 108, 4-[3-(2-Methyl-pyridin-4-yl)-phenyl]-8-pyrrol-1-yl-1,3-dihydro-benzo[b][1,4]diazepin-2-one]	206
Cc1cc2c(cc1Cl)NC(=O)CC(c1cccc(-c3cc(N)ncn3)c1)=N2 [Example 329, 4-[3-(6-Amino-pyrimidin-4-yl)-phenyl]-8-chloro-7-methyl-1,3-dihydro-benzo[b][1,4]diazepin-2-one]	228 to 233
Cc1cc(-c2cccc(C3=Nc4cc(N(C)C)c(C(F)(F)F)cc4NC(=O)C3)c2)nc(N)n1 [Example 317, 4-[3-(2-Amino-6-methyl-pyrimidin-4-yl)-phenyl]-7-dimethylamino-8-trifluoromethyl-1,3-dihydro-benzo[b][1,4]diazepin-2-one]	250 to 253
COc1ccc(-c2cccc(C3=Nc4ccc(OC(F)(F)F)cc4NC(=O)C3)c2)cn1 [Example 212, 4-[3-(6-Methoxy-pyridin-3-yl)-phenyl]-8-trifluoromethoxy-1,3-dihydro-benzo[b][1,4]diazepin-2-one]	186
Cc1cc2c(cc1Cl)NC(=O)CC(c1cccc(-c3cccnc3)c1)=N2 [Example 26, 8-Chloro-7-methyl-4-(3-pyridin-3-yl-phenyl)-1,3-dihydro-benzo[b][1,4]diazepin-2-one]	229
Cc1cc(-c2cccc(C3=Nc4cc(C)c(C(F)(F)F)cc4NC(=O)C3)c2)c(C)cn1 [Example 135, 4-[3-(2,5-Dimethyl-pyridin-4-yl)-phenyl]-7-methyl-8-trifluoromethyl-1,3-dihydro benzo[b][1,4]diazepin-2-one]	211
Cc1cc2c(cc1Cl)NC(=O)CC(c1cccc(-c3ccnc(CNC4CC4)c3)c1)=N2 [Example 378, 8-Chloro-4-[3-(2-cyclopropylaminomethyl-pyridin-4-yl)-phenyl]-7-methyl-1,3-dihydro-benzo[b][1,4]diazepin-2-one]	171
Cc1cc(-c2cccc(C3=Nc4cc(NCC(C)C)c(Cl)cc4NC(=O)C3)c2)ccn1 [Example 79, 8-Chloro-7-isobutylamino-4-[3-(2-methyl-pyridin-4-yl)-phenyl]-1,3-dihydro-benzo[b][1,4]diazepin-2-one]	220
COc1ccc(-c2cccc(C3=Nc4cc(OCC(F)(F)F)ccc4NC(=O)C3)c2)cn1 [Example 169, 4-[3-(6-Methoxy-pyridin-3-yl)-phenyl]-7-(2,2,2-trifluoro-ethoxy)-1,3-dihydro-benzo[b][1,4]diazepin-2-one]	186
Cc1cc(-c2cccc(C3=Nc4cc(C)c(Cl)cc4NC(=O)C3)c2)c(C)cn1 [Example 134, 8-Chloro-4-[3-(2,5-dimethyl-pyridin-4-yl)-phenyl]-7-methyl-1,3-dihydro-benzo[b][1,4]diazepin-2-one]	208
Cc1cc(-c2cccc(C3=Nc4cc(C)c(C(F)(F)F)cc4NC(=O)C3)c2)nc(N)n1 [Example 315, 4-[3-(2-Amino-6-methyl-pyrimidin-4-yl)-phenyl]-7-methyl-8-trifluoromethyl-1,3-dihydro-benzo[b][1,4]diazepin-2-one]	248 to 250
Cc1ccncc1-c1cccc(C2=Nc3ccc(C(F)(F)F)cc3NC(=O)C2)c1 [Example 226, 4-[3-(4-Methyl-pyridin-3-yl)-phenyl]-8-trifluoromethyl-1,3-dihydro-benzo[b][1,4]diazepin-2-one]	220 to 221
CNc1nc(C)cc(-c2cccc(C3=Nc4cc(C)c(C(F)(F)F)cc4NC(=O)C3)c2)n1 [Example 318, 7-Methyl-4-[3-(6-methyl-2-methylamino-pyrimidin-4-yl)-phenyl]-8-trifluoromethyl-1,3-dihydro-benzo[b][1,4]diazepin-2-one]	241 to 243

Other lines, results leading:

melting point [°C]	SMILES
242	O=C1CC(c2cccc(-c3cnccn3)c2)=Nc2cc(OCC(F)(F)F)c(C(F)(F)F)cc2N1 [Example 112, 4-(3-Pyrazin-2-yl-phenyl)-7-(2,2,2-trifluoro-ethoxy)-8-trifluoromethyl-1,3-dihydro-benzo[b][1,4]diazepin-2-one]
221	Cc1cc(-c2cccc(C3=Nc4cc(Cl)c(C(F)(F)F)cc4NC(=O)C3)c2)ccn1 [Example 82, 7-Chloro-4-[3-(2-methyl-pyridin-4-yl)-phenyl]-8-trifluoromethyl-1,3-dihydro benzo[b][1,4]diazepin-2-one]
229	O=C1CC(c2cccc(-c3ccnc(C(F)(F)F)c3)c2)=Nc2cc(Cl)c(C(F)(F)F)cc2N1 [Example 266, 7-Chloro-8-trifluoromethyl-4-[3-(2-trifluoromethyl-pyridin-4-yl)-phenyl]-1,3-dihydro-benzo[b][1,4]diazepin-2-one]
212	Cc1nccc(-c2cccc(C3=Nc4cc(Cl)c(C(F)(F)F)cc4NC(=O)C3)c2)c1C [Example 143, 7-Chloro-4-[3-(2,3-dimethyl-pyridin-4-yl)-phenyl]-8-trifluoromethyl-1,3-dihydro benzo[b][1,4]diazepin-2-one]
208	CCc1cc(-c2cccc(C3=Nc4ccc(C(F)(F)F)cc4NC(=O)C3)c2)ccn1 [Example 155, 4-[3-(2-Ethyl-pyridin-4-yl)-phenyl]-8-trifluoromethyl-1,3-dihydro benzo[b][1,4]diazepin-2-one]
232	Cc1cc2c(cc1C(F)(F)F)NC(=O)CC(c1cccc(-c3ccnc(C4CC4)c3)c1)=N2 [Example 347, 4-[3-(2-Cyclopropyl-pyridin-4-yl)-phenyl]-7-methyl-8-trifluoromethyl-1,3-dihydro-benzo[b][1,4]diazepin-2-one]
217	CCOc1cc2c(cc1C(F)(F)F)NC(=O)CC(c1cccc(-c3ccnc(C(C)C)c3)c1)=N2 [Example 276, 4-[3-(2-Isopropyl-pyridin-4-yl)-phenyl]-7-ethoxy-8-trifluoromethyl-1,3-dihydro-benzo[b][1,4]diazepin-2-one]
169	CCc1cnc(C)cc1-c1cccc(C2=Nc3cc(OCC(F)(F)F)c(C(F)(F)F)cc3NC(=O)C2)c1 [Example 151, 4-[3-(5-ethyl-2-methyl-pyridin-4-yl)-phenyl]-7-(2,2,2-trifluoro-ethoxy)-8-trifluoromethyl-1,3-dihydro-benzo[b][1,4]diazepin-2-one]
229	CCOc1cc2c(cc1C(F)(F)F)NC(=O)CC(c1cccc(-c3ccccn3)c1)=N2 [Example 43, 7-Ethoxy-4-(3-pyridin-2-yl-phenyl)-8-trifluoromethyl-1,3-dihydro-benzo[b][1,4]diazepin-2-one]
189	CCOc1cc2c(cc1C(F)(F)F)NC(=O)CC(c1cccc(-c3cc(C)ncc3C)c1)=N2 [Example 139, 4-[3-(2,5-Dimethyl-pyridin-4-yl)-phenyl]-7-ethoxy-8-trifluoromethyl-1,3-dihydro-benzo[b][1,4]diazepin-2-one]
195	CC(C)c1cc(-c2cccc(C3=Nc4cc(Cl)c(Cl)cc4NC(=O)C3)c2)ccn1 [Example 274, 7,8-Dichloro-4-[3-(2-isopropyl-pyridin-4-yl)-phenyl]-1,3-dihydro-benzo[b][1,4]diazepin-2-one]
200 to 201	C=Cc1cc2c(cc1C(F)(F)F)NC(=O)CC(c1cccc(-c3ccnc(C)c3)c1)=N2 [Example 244, 4-[3-(2-Methyl-pyridin-4-yl)-phenyl]-8-trifluoromethyl-7-vinyl-1,3-dihydro-benzo[b][1,4]diazepin-2-one]
223	CN(C)c1cc2c(cc1C(F)(F)F)NC(=O)CC(c1cccc(-c3ccnc(CO)c3)c1)=N2 [Example 371, 7-Dimethylamino-4-[3-(2-hydroxymethyl-pyridin-4-yl)-phenyl]-8-trifluoromethyl-1,3-dihydro-benzo[b][1,4]diazepin-2-one]

Reference: patent US6949542B2, “Dihydro-benzo[b][1,4]diazepin-2-one derivatives” (Hoffman-La Roche Inc., priority 2002, dated 2005)
